We go through nine molecules from article PMC10638401, “Mannich-type modifications of (−)-cannabidiol and (−)-cannabigerol leading to new, bioactive derivatives” (Scientific Reports, 2023).

≈ marks a conversion by molar mass, not a printed value. Like-named read-outs stand apart in the source and are kept apart here.

Data set [1] has as its system Enterococcus faecalis 29 212. Description: MIC, broth micro dilution.
Experimental: (§5) According to CLSI guideline the Minimal Inhibitory Concentrations (MICs) of the prepared compounds were determined with the broth micro dilution method. After an overnight growth on 5% bovine blood agar plates at 35 °C bacterial strains were suspended in physiological saline in order to reach the density of 0.5 McFarland for inoculation. Stock solutions containing different concentrations of the substances were prepared in DMSO and H2O (1:1). These were twofold serially diluted from 256 to 0.5 mg/l in Mueller–Hinton broth, and 100 ml of each dilution was inoculated with 10 ml of each bacterial suspension.
For data set [2], the system named is MSSA (Methicillin Sensitive Staphylococcus aureus). Description: MIC, broth micro dilution.
Data set [3] concerns MRSA (Methicillin Resistant Staphylococcus aureus). Briefly: MIC, broth micro dilution.
For data set [4], the system named is A2780 cells. Description: Antiproliferative MTT assay, 72 h. It counts as cell-based, human. Particulars: for antiproliferative activity (in words): A2780, 10 and 30 μM. The source says: (§1) Human adherent cancer cell lines A2780, MDA-MB-231 and MCF-7 were obtained from ECACC (European Collection of Cell Cultures, Salisbury, UK; Cat. No.93112519, 92020424, 86012803, respectively). SiHa cell line was obtained from ATCC (American Tissue Culture Collection, Manassas, Virginia, USA; Cat. No. HTB-35). All cell lines used for antiproliferative assay were maintained in Eagle's Minimum Essential Medium (EMEM) completed with 10% fetal bovine serum (FBS), 1% non-essential amino acid solution, and 1% penicillin, streptomycin, and amphotericin B mixture under cell culture conditions described before. All the utilized media and supplements were purchased from Lonza Group Ltd. (Basel, Switzerland).
(§2) The antiproliferative actions of the prepared molecules were determined by the same assay against a panel of adherent human cancer cell lines containing cervical (SiHa), ovarian (A2780) and breast (MCF7, MDA-MB-231) cell lines. Cells were plated onto 96-well microplates (5000 cells/well) and after an overnight incubation treated with two concentrations (10 or 30 μM) of the test substances for 72 h under cell culture conditions. Subsequently, MTT (5 mg/ml in phosphate buffer) was added to the wells, followed by incubation for 4 h. The supernatant was removed, the formazan crystals were then dissolved in 100 µl DMSO. Finally, absorbance values were determined by a microplate reader (BMG Labtech, Ortenberg, Germany) at 545 nm. Two independent measurements were performed with five parallel wells. Results were expressed as percentage of cell proliferation inhibition compared to non-treated control samples regarded as 0%.
On the technique in general: Formazan colour is commonly taken as a measure of viable cells.

Data set [5] deals with MDA-MB-231 cells. Briefly: Antiproliferative MTT assay, 72 h. It counts as cell-based, human. The settings on record: for antiproliferative activity (in words): MDA-MB-231, 10 and 30 μM.
Text: as §1, §2

Data set [6] relates to SiHa cells. Briefly: Antiproliferative MTT assay, 72 h. The format is cell-based, human. The settings on record: for antiproliferative activity (in words): 10 and 30 μM.
Text: as §1, §2

Data set [7] has as its system MCF7 cells. Briefly: Antiproliferative MTT assay, 72 h. The format is cell-based, human. The settings on record: for antiproliferative activity (in words): MCF7, 10 and 30 μM; for inhibition of the proliferation: MCF7, 30 μM.
Text: as §1, §2

Data set [8] relates to Staphylococcus epidermidis mecA. Briefly: MIC, broth micro dilution.
Experimental: as §5
The subject of data set [9] is Staphylococcus epidermidis biofilm forming. Briefly: MIC, broth micro dilution.
Experimental: as §5
Data set [10] deals with Enterococcus faecalis 51299 VanB. Briefly: MIC, broth micro dilution.
Data set [11] has as its system Bacillus subtilis. Description: MIC, broth micro dilution.
The test system of data set [12] is Enterococcus faecalis 15 376 VanA. Description: MIC, broth micro dilution.
In data set [13] the test system is SARS-CoV-2. Briefly: SARS-CoV-2 cytopathic effect (CPE) inhibition assay in Vero E6 cells (XTT). The format is cell-based. The settings on record: for EC50: Severe acute respiratory syndrome coronavirus 2, Vero C1008, 72 h, Vero E6 cells, 3 days post-infection, XTT; for IC50: Severe acute respiratory syndrome coronavirus 2, Vero C1008, read-out: IC50 (anti-SARS-CoV-2 activity, Figure 8). As for the experimental part: (§3) CBD and CBG derivatives were further tested for their ability to inhibit SARS-CoV-2 replication in Vero E6 cells. Initially, the inhibition of virus-induced cytopathic effect was measured by addition of twofold serial dilutions of each derivative to the cells, followed by the infection with SARS-CoV-2 and determination of the cell viability 3 days post-infection by XTT assay. Concurrently, the cytotoxicity of each compound was assessed from identical dilutions in uninfected Vero E6 cells. To confirm anti-SARS-CoV-2 activity in the CPE inhibition assay, selected compounds were tested in immunofluorescence assay, where inhibition of SARS-CoV-2 replication was monitored as reduction in nucleoprotein expression using fluorescence microscope. […] Among the CBG derivatives, we can find quite cytotoxic and non-cytotoxic derivatives as well.
(§4) For CPE-based assay, two-fold fold serial dilutions of compounds from 100 µM were added in triplicate in a 384-well plate with 5000 Vero E6 cells in DMEM medium with 2% FBS, 100 U of penicillin/ml and 100 µg of streptomycin/ml (all Merck). After 1 h incubation SARS-CoV-2 (strain hCoV-19/Czech Republic/NRL_6632_2/2020) was added at multiplicity of infection […]. Following three days incubation at 37 °C in 5% CO2 the cell viability was determined by addition of XTT solution (Sigma-Aldrich) for 4 h and the absorbance was measured using EnVision plate reader (Perkin Elmer). Drug concentrations required to reduce viral cytopathic effect by 50% (EC50) were calculated using nonlinear regression from plots of percentage cell viability versus log10 drug concentration using GraphPad Prism (version 9.0.0, GraphPad Software, LLC). For immunofluorescence assay, two-fold fold serial dilutions of compounds from 100 µM were added in triplicate in 96-well plate with 15,000 Vero E6 cells plated day before in the same medium as above. After 1 h incubation, SARS-CoV-2 was added at multiplicity of infection 0.05 IU/cell. After three days of incubation, cells were fixed with 4% paraformaldehyde, permeabilized with 0.2% Triton X100 (both Merck), washed, incubated with anti-SARS-CoV-2antibody (mouse monoclonal antibody detecting SARS-CoV-2 nucleoprotein) for 2 h at room temperature. Followed by 1.5 h incubation with Cy3-labeled donkey anti-mouse IgG (Jackson ImmunoResearch Europe) and documented using fluorescence microscope with camera (Olympus). Images were processed in ImageJ software (NIH) and compound concentrations required to reduce fluorescence by 50% (EC50s) were calculated from plots of percentage of fluorescent cells versus log10 drug concentration using nonlinear regression analysis as above. Cytotoxicity was evaluated by incubating with the same two-fold serial dilutions of each compound as above with Vero E6 cells in 384-well plate.
(Cytopathic effects are the visible damage that an infection or toxin causes in cultured cells.)

The nature of data set [14]: in vitro. Particulars: African green monkey.
The subject of data set [15] is SARS-CoV-2. Briefly: SARS-CoV-2 immunofluorescence assay (nucleoprotein expression) in Vero E6 cells. The format is cell-based. The settings on record: Severe acute respiratory syndrome coronavirus 2, Vero C1008, 72 h, three days. As for the experimental part:
as §3, §4

The mark [16] stands for this setting: Enterococcus faecalis, 51299VANB.
[17] abbreviates: Enterococcus faecalis, 15376VANA.

Usually EC50 stands for the concentration giving half of the maximal effect. The IC50 is the concentration that gives 50% inhibition.

`C=C(C)[C@@H]1CCC(C)=C[C@H]1c1c(O)cc(CCCCC)c2c1OCN(CCCC)C2.Cl` [Compound 8s]: the MIC was 2 µg/mL in data set [1] (Enterococcus faecalis 29 212); 128 µg/mL in data set [2]; 128 µg/mL in data set [3]; 128 µg/mL in data set [8] (Staphylococcus epidermidis mecA); 128 µg/mL in [9] (Staphylococcus epidermidis biofilm forming); 2 µg/mL in data set [10] (Enterococcus faecalis 51299 VanB). Moreover, the MIC in data set [11] and in data set [12] (Enterococcus faecalis 15 376 VanA) was 128 µg/mL in each case. In addition, the “antiproliferative activity (in words)” value in data set [4], in data set [5], in data set [6] and in [7] was “no significant difference was detected” throughout.

For the molecule `C=C(C)[C@@H]1CCC(C)=C[C@H]1c1c(O)cc(CCCCC)c2c1OCN(Cc1ccccc1)C2` [Compound 10], the values for the concentration giving a half-maximal response (EC50) in [13] and in [15] were 9 ± 0.51 µM and roughly 42 µM, respectively. The IC50 in [13] was 9 µM. Also, the MIC is greater than 256 µg/mL in [1] (Enterococcus faecalis, 29212); greater than 256 µg/mL in [2] (Staphylococcus aureus); greater than 256 µg/mL in [3] (Staphylococcus aureus); greater than 256 µg/mL in [8] (Staphylococcus epidermidis); greater than 256 µg/mL in data set [9] (Staphylococcus epidermidis); greater than 256 µg/mL in data set [10] (setting [16]). For the same molecule, the MIC in data set [11] and in data set [12] (setting [17]) was greater than 256 µg/mL each time. For the same molecule, the CC50 in [14] is greater than 100 µM. Besides, the “inhibition of the proliferation” value in [7] is listed as “considerable growth inhibition”.

On to `C=C(C)[C@@H]1CCC(C)=C[C@H]1c1c(O)cc(CCCCC)c2c1OCN(CCCC(=O)O)C2` [Compound 12], for which the figures for the concentration for a half-maximal effect (EC50) in data set [13] and in data set [15] were 11 ± 1.2 µM and 39 ± 1.4 µM, respectively. In addition, the half-maximal inhibitory concentration (IC50) in data set [13] was 11 µM. The MIC in [1] (Enterococcus faecalis, 29212) is greater than 256 µg/mL; in data set [2] (Staphylococcus aureus) it was greater than 256 µg/mL; in [3] (Staphylococcus aureus), greater than 256 µg/mL; in data set [8] (Staphylococcus epidermidis), greater than 256 µg/mL; in data set [9] (Staphylococcus epidermidis), greater than 256 µg/mL; in [10] (setting [16]), greater than 256 µg/mL. The MIC in data set [11] and in data set [12] (setting [17]) was greater than 256 µg/mL each time. The same molecule returned a CC50 in data set [14] of roughly 56 µM. Moreover, the “antiproliferative activity (in words)” value is “None of the other tested CBD analogs (9, 11, and 12) exhibited substantial antiproliferative activity” in data set [4]; “None of the other tested CBD analogs (9, 11, and 12) exhibited substantial antiproliferative activity” in [5]; “None of the other tested CBD analogs (9, 11, and 12) exhibited substantial antiproliferative activity” in [6]; “None of the other tested CBD analogs (9, 11, and 12) exhibited substantial antiproliferative activity” in [7].

`C=C(C)[C@@H]1CCC(C)=C[C@H]1c1c(O)c(CN(CC)CC)c(CCCCC)c(CN(CC)CC)c1O` [Compound 13] had an EC50 in [13] greater than 12 µM. The IC50 in data set [13] was greater than 12 µM. The MIC in data set [1] (Enterococcus faecalis, 29212) was greater than 256 µg/mL; in data set [2] (Staphylococcus aureus), greater than 256 µg/mL; in [3] (Staphylococcus aureus), greater than 256 µg/mL; in data set [8] (Staphylococcus epidermidis), greater than 256 µg/mL; in data set [9] (Staphylococcus epidermidis), greater than 256 µg/mL; in data set [10] (setting [16]), greater than 256 µg/mL. Moreover, the MIC in data set [11] and in data set [12] (setting [17]) was greater than 256 µg/mL in each case. Further, the CC50 in [14] stood at 12 ± 0.28 µM. Besides, the “inhibition of the proliferation (in words)” value in [4] (A2780, 10 μM) is “no relevant action”; in [5] (MDA-MB-231, 10 μM), “no relevant action”; in data set [6] (10 μM), “no relevant action”; in [7] (MCF7, 10 μM), “no relevant action”. Further, the “inhibition of the proliferation” value in [4] (A2780, 30 μM) was “similarly effective than CBD”; in data set [5] (MDA-MB-231, 30 μM) it was “similarly effective than CBD”; in data set [6] (30 μM), “similarly effective than CBD”; in [7] it was “similarly effective than CBD”.

On to `CCCCCc1cc(O)c(C/C=C(\C)CCC=C(C)C)c2c1CN(Cc1ccccc1)CO2` [Compound 17a], for which, in [13], the concentration giving a half-maximal response (EC50) was greater than 100 µM. In addition, the concentration for half-maximal inhibition (IC50) in data set [13] is greater than 100 µM. The MIC in [1] (Enterococcus faecalis, 29212) was 64 µg/mL (≈ 143 µM); in data set [2] (Staphylococcus aureus) it was greater than 256 µg/mL; in data set [3] (Staphylococcus aureus), greater than 256 µg/mL; in [8] (Staphylococcus epidermidis), greater than 256 µg/mL; in data set [9] (Staphylococcus epidermidis), greater than 256 µg/mL; in data set [10] (setting [16]), 64 µg/mL (≈ 143 µM). In addition, the MIC in [11] and in data set [12] (setting [17]) was greater than 256 µg/mL each time. Further, the CC50 in [14] was greater than 100 µM.

With `CCCCCc1c2c(c(C/C=C(\C)CCC=C(C)C)c3c1CN(Cc1ccccc1)CO3)OCN(Cc1ccccc1)C2` [Compound 17b], the “antiproliferative activity (in words)” value in [4], in data set [5], in data set [6] and in data set [7] was “ineffectiveness” each time.

Turning to `C=CCN1COc2c(c(CCCCC)c3c(c2C/C=C(\C)CCC=C(C)C)OCN(CC=C)C3)C1` [Compound 19b], the “antiproliferative activity (in words)” value in data set [4], in data set [5], in [6] and in data set [7] was “more active than CBG” throughout.

`CCCCCc1cc(O)c(C/C=C(\C)CCC=C(C)C)c2c1CN(CCCC(=O)O)CO2` [Compound 20] displayed a 50% effective concentration (EC50) in data set [13] greater than 100 µM. For the same molecule, the IC50 in [13] was greater than 100 µM. Further, the MIC was 64 µg/mL (≈ 144 µM) in [1] (Enterococcus faecalis, 29212); greater than 256 µg/mL in data set [2] (Staphylococcus aureus); greater than 256 µg/mL in data set [3] (Staphylococcus aureus); greater than 256 µg/mL in data set [8] (Staphylococcus epidermidis); greater than 256 µg/mL in data set [9] (Staphylococcus epidermidis); 128 µg/mL (≈ 289 µM) in data set [10] (setting [16]). Moreover, the MIC was greater than 256 µg/mL in [11] and 128 µg/mL (≈ 289 µM) in [12] (setting [17]). Further, the CC50 in [14] was greater than 100 µM.

For `CCC(CC)COC(=O)[C@H](C)N[P@](=O)(OC[C@H]1O[C@@](C#N)(c2ccc3c(N)ncnn23)[C@H](O)[C@@H]1O)Oc1ccccc1` [Remdesivir, reference compound], the EC50 in data set [13] came to 2.8 ± 0.18 µM; in [15], 1.2 ± 0.03 µM. The same molecule yielded a CC50 in [14] greater than 100 µM.
